Molecular target: T1, CFTR (Homo sapiens, UniProt P13569, DEL508-508)
T1 construct: endogenous in cells; host or cells: primary human bronchial epithelial cells from CF subjects (F508del/MF-HBE), differentiated at air-liquid interface
Assay: HBE2 assay: Ussing chamber assay of CFTR-mediated short-circuit currents
Assay type: cell-based
Details: F508del/MF-HBE cells, with 44 nM potentiator, 18-24 hours, 20% human serum; for Emax: read-out: HBE2 Max activity (%)
How it was run: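 F508del/MF-HBE cultured >14 days at air-liquid interface, mounted in Ussing chambers; transepithelial short-circuit current recorded under voltage clamp (Vhold=0 mV) at 37 °C. CFTR-mediated ISC (μA/cm^2) taken as peak forskolin response relative to steady-state current after inhibition; corrector activity assessed this way.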

T1 sequence (P13569 with tags, fused parts or gaps DEL508-508): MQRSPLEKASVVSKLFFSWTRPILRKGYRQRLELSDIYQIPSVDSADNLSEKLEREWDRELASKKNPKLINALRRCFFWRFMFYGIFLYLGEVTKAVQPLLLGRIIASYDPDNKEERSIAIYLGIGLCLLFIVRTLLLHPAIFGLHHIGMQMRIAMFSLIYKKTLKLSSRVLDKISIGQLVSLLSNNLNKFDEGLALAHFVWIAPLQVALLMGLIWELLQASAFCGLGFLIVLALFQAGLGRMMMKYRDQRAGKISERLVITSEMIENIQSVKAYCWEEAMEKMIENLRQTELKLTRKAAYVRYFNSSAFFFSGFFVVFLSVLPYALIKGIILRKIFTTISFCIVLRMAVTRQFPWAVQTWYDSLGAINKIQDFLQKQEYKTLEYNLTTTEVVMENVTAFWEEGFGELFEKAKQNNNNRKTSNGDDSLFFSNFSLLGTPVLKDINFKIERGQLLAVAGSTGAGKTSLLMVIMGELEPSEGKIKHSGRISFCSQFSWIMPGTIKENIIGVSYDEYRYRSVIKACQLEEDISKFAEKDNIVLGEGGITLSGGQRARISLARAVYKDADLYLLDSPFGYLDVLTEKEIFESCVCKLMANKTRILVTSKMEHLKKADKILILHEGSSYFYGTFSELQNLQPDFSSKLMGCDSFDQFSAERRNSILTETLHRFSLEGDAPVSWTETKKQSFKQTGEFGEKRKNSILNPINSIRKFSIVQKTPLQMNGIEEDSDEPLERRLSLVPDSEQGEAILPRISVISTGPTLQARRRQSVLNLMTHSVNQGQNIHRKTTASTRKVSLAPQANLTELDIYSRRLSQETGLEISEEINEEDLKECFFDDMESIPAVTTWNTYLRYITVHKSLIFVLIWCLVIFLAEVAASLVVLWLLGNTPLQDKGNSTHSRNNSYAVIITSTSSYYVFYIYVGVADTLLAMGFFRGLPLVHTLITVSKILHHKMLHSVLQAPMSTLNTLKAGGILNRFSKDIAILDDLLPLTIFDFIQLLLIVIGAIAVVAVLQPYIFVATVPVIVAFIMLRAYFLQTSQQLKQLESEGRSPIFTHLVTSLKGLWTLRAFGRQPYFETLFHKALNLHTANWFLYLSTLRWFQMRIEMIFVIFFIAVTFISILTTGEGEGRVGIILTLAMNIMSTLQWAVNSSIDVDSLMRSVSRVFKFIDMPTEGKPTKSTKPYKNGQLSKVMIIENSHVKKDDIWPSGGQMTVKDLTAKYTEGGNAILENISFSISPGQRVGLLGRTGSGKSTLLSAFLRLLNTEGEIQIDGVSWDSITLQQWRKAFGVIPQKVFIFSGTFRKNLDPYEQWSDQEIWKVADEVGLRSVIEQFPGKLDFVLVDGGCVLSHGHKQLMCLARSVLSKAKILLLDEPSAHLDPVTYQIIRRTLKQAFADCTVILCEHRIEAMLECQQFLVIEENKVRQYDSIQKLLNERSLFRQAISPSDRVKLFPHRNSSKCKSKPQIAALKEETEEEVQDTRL

Structure (SMILES) | HBE2 Activity at 3 μM (%) | EC50 | Emax
COC[C@@H]1CCN1c1cccc(CN2C(=O)c3cccc(c3)S(=O)(=O)Nc3nc(cc(-c4c(C)cccc4C)n3)OC[C@H]2CC(C)(C)C)n1 [Compound 1550] | +++ (+++ is >60+) | – | –
Cc1cccc(C)c1-c1cc2nc(n1)NS(=O)(=O)c1cccc(c1)C(=O)N(Cc1cccc(N3CC[C@H]3C)n1)[C@H](CC(C)(C)C)CO2 [Compound 1551] | +++ (+++ is >60+) | – | –
Cc1cccc(C)c1-c1cc2nc(n1)NS(=O)(=O)c1cccc(c1)C(=O)N(Cc1nccc(N3CC[C@H]3C)n1)[C@H](CC(C)(C)C)CO2 [Compound 1552] | +++ (+++ is >60+) | – | –
COC[C@@H]1CCN1c1ccnc(CN2C(=O)c3cccc(c3)S(=O)(=O)Nc3nc(cc(-c4c(C)cccc4C)n3)OC[C@H]2CC(C)(C)C)n1 [Compound 1553] | +++ (+++ is >60+) | – | –
CC[C@@H](C)Oc1cnc(CN2C(=O)c3cccc(c3)S(=O)(=O)Nc3nc(cc(-c4c(C)cccc4C)n3)OC[C@H]2CC2(C)CC2)nc1 [Compound 1555] | +++ (+++ is >60+) | – | –
CC[C@@H](C)Oc1cnc(CN2C(=O)c3cccc(c3)S(=O)(=O)Nc3nc(cc(-c4c(C)cccc4C)n3)OC[C@H]2CC2CCC2)nc1 [Compound 1556] | +++ (+++ is >60+) | – | –
Cc1cccc(C)c1-c1cc2nc(n1)NS(=O)(=O)c1cccc(c1)C(=O)N(Cc1ncc(N3CCC(C)(C)CC3)cn1)[C@H](CC1(C)CC1)CO2 [Compound 1560] | +++ (+++ is >60+) | – | –
Cc1cccc(C)c1-c1cc2nc(n1)NS(=O)(=O)c1cccc(c1)C(=O)N(Cc1ncc(N3CCC(C)(C)C3)cn1)[C@H](CC1(C)CC1)CO2 [Compound 1561] | +++ (+++ is >60+) | – | –
CCCOc1cnc(CN2C(=O)c3cccc(c3)S(=O)(=O)Nc3nc(cc(-c4c(C)cccc4C)n3)OC[C@H]2CC2(C)CC2)nc1 [Compound 1562] | +++ (+++ is >60+) | – | –
Cc1cccc(C)c1-c1cc2nc(n1)NS(=O)(=O)c1cccc(c1)C(=O)N(Cc1ncc(N3CC(C)(C)C3)cn1)[C@H](CC(C)C)CO2 [Compound 1563] | +++ (+++ is >60+) | – | –
Cc1cccc(C)c1-c1cc2nc(n1)NS(=O)(=O)c1cccc(c1)C(=O)N(Cc1ncc(N3CCC(C)(C)C3)cn1)[C@H](CC(C)(C)F)CO2 [Compound 1564] | +++ (+++ is >60+) | – | –
Cc1cccc(C)c1-c1cc2nc(n1)NS(=O)(=O)c1cccc(c1)C(=O)N(Cc1ncc(OC(C)C)cn1)[C@H](CC1CCC1)[C@@H](C)O2 [Compound 1565] | +++ (+++ is >60+) | – | –
Cc1cccc(C)c1-c1cc2nc(n1)NS(=O)(=O)c1cccc(c1)C(=O)N(Cc1ncc(OC(C)C)cn1)[C@H](CC1CCC1)[C@@H](C)O2 [Compound 1566] | + (+ is <300)) | – | –
Cc1cccc(C)c1-c1cc2nc(n1)NS(=O)(=O)c1cccc(c1)C(=O)N(Cc1ncc(OC(C)C)cn1)[C@H](CC1CCC1)[C@@H](C)O2 [Compound 1567] | +++ (+++ is >60+) | – | –
Cc1cccc(C)c1-c1cc2nc(n1)NS(=O)(=O)c1cccc(c1)C(=O)N(Cc1ncc(OC(C)C)cn1)[C@H](CC1CCC1)[C@@H](C)O2 [Compound 1568] | +++ (+++ is >60+) | – | –
Cc1cccc(C)c1-c1cc2nc(n1)NS(=O)(=O)c1cccc(c1)C(=O)N(Cc1cccc(N3CCC[C@H]3C)n1)[C@H](CC1(C)CC1)CO2 [Compound 1569] | +++ (+++ is >60+) | – | –
Cc1cccc(C)c1-c1cc2nc(n1)NS(=N)(=O)c1cccc(c1)C(=O)N(Cc1ncc(OC(C)C)cn1)[C@H](CC(C)(C)C)CO2 (stereo partly drawn) [Compound 1574] | ++ (++ is 30-60%) | – | –
Cc1cccc(C)c1-c1cc2nc(n1)NS(=N)(=O)c1cccc(c1)C(=O)N(Cc1ncc(OC(C)C)cn1)[C@H](CC(C)(C)C)CO2 (stereo partly drawn) [Compound 1575] | +++ (+++ is >60+) | – | –
Cc1cccc(C)c1-c1cc2nc(n1)NS(=O)(=O)c1cccc(c1)C(=O)N(Cc1ncc(OC3CCC3)cn1)[C@H](CC1(C)CC1)CO2 [Compound 1576] | +++ (+++ is >60+) | – | –
CCCOc1cnc(CN2C(=O)c3cccc(c3)S(=O)(=O)Nc3nc(cc(-c4c(C)cccc4C)n3)OC[C@H]2CCC(C)C)nc1 [Compound 1577] | +++ (+++ is >60+) | – | –
Cc1cccc(C)c1-c1cc2nc(n1)NS(=O)(=O)c1cccc(c1)C(=O)N(Cc1cccc(N(C)C3CCC3)n1)[C@H](CC(C)(C)C)CO2 [Compound 1578] | +++ (+++ is >60+) | < 1000 nM | > 60%
CCN(c1cncc(CN2C(=O)c3cccc(c3)S(=O)(=O)Nc3nc(cc(-c4c(C)cccc4C)n3)OC[C@H]2CC(C)(C)C)n1)C1CCC1 [Compound 1579] | +++ (+++ is >60+) | < 1000 nM | > 60%
CCN(CCOC)c1cncc(CN2C(=O)c3cccc(c3)S(=O)(=O)Nc3nc(cc(-c4c(C)cccc4C)n3)OC[C@H]2CC(C)(C)C)n1 [Compound 1580] | +++ (+++ is >60+) | < 1000 nM | > 60%

Structure (SMILES) | HBE2 Activity at 3 μM (%) | EC50 | Emax
CC(=O)N(C)c1cncc(CN2C(=O)c3cccc(c3)S(=O)(=O)Nc3nc(cc(-c4c(C)cccc4C)n3)OC[C@H]2CC(C)(C)C)n1 [Compound 1581] | +++ (+++ is >60+) | – | –
COC(=O)N(C)c1cncc(CN2C(=O)c3cccc(c3)S(=O)(=O)Nc3nc(cc(-c4c(C)cccc4C)n3)OC[C@H]2CC(C)(C)C)n1 [Compound 1582] | +++ (+++ is >60+) | – | –
CC(=O)N(C)c1cccc(CN2C(=O)c3cccc(c3)S(=O)(=O)Nc3nc(cc(-c4c(C)cccc4C)n3)OC[C@H]2CC(C)(C)C)n1 [Compound 1583] | +++ (+++ is >60+) | – | –
COC(=O)N(C)c1cccc(CN2C(=O)c3cccc(c3)S(=O)(=O)Nc3nc(cc(-c4c(C)cccc4C)n3)OC[C@H]2CC(C)(C)C)n1 [Compound 1584] | +++ (+++ is >60+) | – | –
Cc1cccc(C)c1-c1cc2nc(n1)NS(=O)(=O)c1cccc(c1)C(=O)N(Cc1cccc(N3CCC[C@@]3(C)CO)n1)[C@H](CC(C)(C)C)CO2 [Compound 1586] | +++ (+++ is >60+) | – | –
CCN(c1cccc(CN2C(=O)c3cccc(c3)S(=O)(=O)Nc3nc(cc(-c4c(C)cccc4C)n3)OC[C@H]2CC(C)(C)C)n1)C1CCC1 [Compound 1587] | +++ (+++ is >60+) | < 1000 nM | > 60%
Cc1cccc(C)c1-c1cc2nc(n1)NS(=O)(=O)c1cccc(c1)C(=O)N(Cc1cccc([C@@H](C)N3CCCC3)n1)[C@H](CC(C)(C)C)CO2 [Compound 1588] | +++ (+++ is >60+) | – | –
Cc1cccc(C)c1-c1cc2nc(n1)NS(=O)(=O)c1cccc(c1)C(=O)N(Cc1cccc([C@@H](C)N3CCCC3)n1)[C@H](CC(C)(C)C)CO2 [Compound 1589] | ++ (++ is 30-60%) | – | –
Cc1cccc(C)c1-c1cc2nc(n1)NS(=O)(=O)c1cccc(c1)C(=O)N(Cc1cccc([C@@H](C)NC(=O)C(C)C)n1)[C@H](CC(C)(C)C)CO2 [Compound 1590] | +++ (+++ is >60+) | – | –
CC(=O)N[C@H](C)c1cccc(CN2C(=O)c3cccc(c3)S(=O)(=O)Nc3nc(cc(-c4c(C)cccc4C)n3)OC[C@H]2CC(C)(C)C)n1 [Compound 1592] | +++ (+++ is >60+) | – | –
Cc1cccc(C)c1-c1cc2nc(n1)NS(=O)(=O)c1cccc(c1)C(=O)N(Cc1ncc(N3CC(C)(C)C3)cn1)[C@H](CC1CCC1)CO2 [Compound 1594] | – | < 1000 nM | > 60%
Cc1cccc(C)c1-c1cc2nc(n1)NS(=O)(=O)c1cccc(c1)C(=O)N(Cc1ncc(N3CC(C)(C)C3)cn1)[C@H](CCC1CC1)CO2 [Compound 1595] | +++ (+++ is >60+) | – | –
CCOc1cnc(CN2C(=O)c3cccc(c3)S(=O)(=O)Nc3nc(cc(-c4c(C)cccc4C)n3)OC[C@H]2CCC2CC2)nc1 [Compound 1596] | +++ (+++ is >60+) | – | –
Cc1cccc(C)c1-c1cc2nc(n1)NS(=O)(=O)c1cccc(c1)C(=O)N(Cc1ncc(OC(C)C)cn1)[C@H](CCC1CC1)CO2 [Compound 1597] | +++ (+++ is >60+) | – | –
CCC(C)Oc1cnc(CN2C(=O)c3cccc(c3)S(=O)(=O)Nc3nc(cc(-c4c(C)cccc4C)n3)OC[C@H]2CCC2CC2)nc1 (stereo partly drawn) [Compound 1598] | +++ (+++ is >60+) | – | –
CCOc1cnc(CN2C(=O)c3cccc(c3)S(=O)(=O)Nc3nc(cc(-c4c(C)cccc4C)n3)OC[C@H]2CCC(C)C)nc1 [Compound 1599] | +++ (+++ is >60+) | – | –
CCCOc1cnc(CN2C(=O)c3cccc(c3)S(=O)(=O)Nc3nc(cc(-c4c(C)cccc4C)n3)OC[C@H]2CCC2CC2)nc1 [Compound 1600] | +++ (+++ is >60+) | – | –
Cc1cccc(C)c1-c1cc2nc(n1)NS(=O)(=O)c1cccc(c1)C(=O)N(Cc1cncc(OC3CCC3)n1)[C@H](CC(C)(C)C)CO2 [Compound 1601] | +++ (+++ is >60+) | – | –
Cc1cccc(C)c1-c1cc2nc(n1)NS(=O)(=O)c1cccc(c1)C(=O)N(Cc1cncc(N(C)C3CC(F)(F)C3)n1)[C@H](CC(C)(C)C)CO2 [Compound 1602] | – | < 1000 nM | > 60%
Cc1cccc(C)c1-c1cc2nc(n1)NS(=O)(=O)c1cccc(c1)C(=O)N(Cc1cncc(NC3CCC3)n1)[C@H](CC(C)(C)C)CO2 [Compound 1603] | – | < 1000 nM | > 60%
Cc1cccc(C)c1-c1cc2nc(n1)NS(=O)(=O)c1cccc(c1)C(=O)N(Cc1cncc(N3CCC34CCC4)n1)[C@H](CC(C)(C)C)CO2 [Compound 1604] | – | < 1000 nM | > 60%
Cc1cccc(C)c1-c1cc2nc(n1)NS(=O)(=O)c1cccc(c1)C(=O)N(Cc1cncc(N3CCCC3c3ccnn3C)n1)[C@H](CC(C)(C)C)CO2 (stereo partly drawn) [Compound 1605] | +++ (+++ is >60+) | – | –
